Assay results from patent publication US20240109881A1, “Heteroaryl Compounds as Ligand Directed Degraders of IRAK4” (Bristol-Myers Squibb Company, priority 2022, published 2024).
Structures can show the parent of a compound that is named as a salt. Where two headings read alike, the source gives them in different places.

Legend:
[1] = Pharmacokinetic studies in mice (plasma PK, IV and PO); type: in vivo; settings: female C57B16 mice; for FPO: PO 3.0 mg/kg vs IV 0.50 mg/kg, dose-normalized AUCLAST; for clearance: read-out: Clp; for Vd: read-out: VSS
Method: Due to the higher molecular weight and lipophilicity, targeted protein degraders generally occupy a physiochemical property space that is beyond Lipinski's rule of 5 and as consequence are expected to have poor oral bioavailability and overall pharmacokinetic properties. […] The plasma pharmacokinetics (PK) of P-394, P-155, P-139, and P-160 were characterized in female C57B16 mice following intravenous (IV; 0.5 mg/kg) administration. Plasma from the tail vein was withdrawn in composite fashion: one group of mice (n=3) provided samples at 2 min, 30 min, 2 h, and 8 h, while another group (n=3) provided samples at 15 min, 1 h, 4 h, and 24 h. The concentrations of test article in these samples were measured using reverse-phase LC-MS-MS and then plotted as a function of time. The resulting concentration-time data was processed using noncompartmental analysis for the calculation of clearance (Cl), volume of distribution at steady state (Vss), half-life, mean residence time (MRT) and area under the time curve (AUC).
Similarly, the PK was characterized following oral (PO; 3 mg/kg) administration. Again, plasma from the tail vein was withdrawn in composite fashion: one group of mice (n=3) provided samples at 15 min, 1 h, 4 h, and 8 h, while another group (n=3) provided samples at […], 2 h, and 24 h. Oral bioavailability (FPO) was calculated by comparing the results of the studies described, dividing the dose-normalized AUCLAST,PO by the dose-normalized AUCLAST,IV.

IRAK4 [2] = biological target: T1, IRAK4 (Homo sapiens, UniProt Q9NWZ3); assay: LVL THP1 HTRF (THP1 Homogeneous Time Resolved Fluorescence); type: cell-based; settings: THP1 cells, 18 h incubation with compound; for DC50: read-out: LVL THP1 HTRF EC50
T1 construct: endogenous in cells; host or cells: THP-1 cells
T1 sequence (Q9NWZ3 1-460): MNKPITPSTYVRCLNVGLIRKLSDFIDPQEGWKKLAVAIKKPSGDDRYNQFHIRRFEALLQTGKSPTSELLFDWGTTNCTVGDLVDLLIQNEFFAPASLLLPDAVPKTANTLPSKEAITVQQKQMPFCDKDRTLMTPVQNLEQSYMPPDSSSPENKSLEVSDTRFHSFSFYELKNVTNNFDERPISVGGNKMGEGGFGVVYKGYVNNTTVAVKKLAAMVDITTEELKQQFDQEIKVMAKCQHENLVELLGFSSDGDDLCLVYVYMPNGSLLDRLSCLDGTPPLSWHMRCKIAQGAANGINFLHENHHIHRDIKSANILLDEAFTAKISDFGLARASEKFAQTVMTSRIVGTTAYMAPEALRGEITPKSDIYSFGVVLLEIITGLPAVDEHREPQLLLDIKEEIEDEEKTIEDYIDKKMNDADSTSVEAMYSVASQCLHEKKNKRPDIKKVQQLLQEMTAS
Outline: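 IRAK4 HTRF read-out (665/615 nm ratio, anti-IRAK4 d2 acceptor and K donor, 18 h dark incubation at room temperature) on lysates of THP-1 cells. Cells were treated 18 h at 37° C. with 20 nL compound in DMSO, in colorless RPMI with 10% FBS, with a duplicate CTG plate.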

IRAK4 [3] = biological target: T1, IRAK4; assay: ALE THP1 HTRF (Advanced Lipoxidation End Product THP1 Homogeneous Time Resolved Fluorescence); type: cell-based; settings: THP1 cells
Outline: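 HTRF read-out of IRAK4 protein: anti-IRAK4 d2 and cryptate antibody pair added to BCA-normalized lysates, overnight dark room-temperature incubation. Lysis ran 45 min with shaking at room temperature; buffer, cryptate-only and negative controls included.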

[4] = mouse, 0.5 mg/kg, IV 0.50 mg/kg, plasma
[5] = mouse, 0.5 mg/kg, plasma, IV 0.50 mg/kg

SMILES	LVL THP1 HTRF YMIN (IRAK4 [2]) [%]	DC50 (IRAK4 [2]) [nM]	ALE THP1 HTRF YMIN (IRAK4 [3]) [%]	EC50 (IRAK4 [3]) [nM]	other results
COc1cc(N2CCN(CC[C@H]3CC[C@H](NC(=O)c4cnc(-n5ncc6cc(C#N)c(N)nc65)cc4N[C@H](C)C#N)CC3)C[C@H]2C)ccc1C1CCC(=O)NC1=O (stereo partly drawn) [P-161]	<0.5	12	6.6	6	–
C[C@H](C#N)Nc1cc(-n2ncc3cc(C#N)cnc32)ncc1C(=O)N[C@H]1CC[C@H](CCN2CC3CCC(C2)N3c2ccc(C3CCC(=O)NC3=O)cc2)CC1 (stereo partly drawn) [P-164]	16.8	> 5000	64.0	136	–
COc1cc(C2CCC(=O)NC2=O)ccc1N1CCN(CC[C@H]2CC[C@H](NC(=O)c3cnc(-n4ncc5cc(C#N)c(N)nc54)cc3N[C@H](C)C#N)CC2)C[C@H]1C (stereo partly drawn) [P-167]	<0.5	5	5.9	2	–
CS(=O)(=O)N1CCC(Nc2cc(-n3ncc4cc(C#N)cnc43)ncc2-n2cc([C@H]3CC[C@H](CCN4CCN(c5ccc(C6CCC(=O)NC6=O)cc5)CC4)CC3)nn2)CC1 (stereo partly drawn) [P-174]	2.7	14	31.2	201	–
C[C@H](C#N)Nc1cc(-n2ncc3cc(C#N)c(N)nc32)ncc1C(=O)N[C@H]1CC[C@H](CCN2CCN(c3ccc(C4CCC(=O)NC4=O)cc3)C(=O)C2)CC1 (stereo partly drawn) [P-177]	6.4	32	6.7	4	–
C[C@H](C#N)Nc1cc(-n2ncc3cc(C#N)cnc32)ncc1C(=O)N[C@H]1CC[C@H](CCN2C[C@H]3C[C@@H](C2)N3c2ccc(C3CCC(=O)NC3=O)cc2)CC1 (stereo partly drawn) [P-180]	18.9	702	7.5	6	–
C[C@H](C#N)Nc1cc(-n2ncc3cc(C#N)c(N)nc32)ncc1C(=O)N[C@H]1CC[C@H](CCN2CCN(c3ccc(C4CCC(=O)NC4=O)cc3)C(C(F)(F)F)C2)CC1 (stereo partly drawn) [P-181]	18.3	112	27.7	168	–
C[C@H](C#N)Nc1cc(-n2ncc3cc(C#N)cnc32)ncc1C(=O)N[C@H]1CC[C@H](CCN2[C@@H]3C[C@H]2CN(c2ccc(C4CCC(=O)NC4=O)cc2)C3)CC1 (stereo partly drawn) [P-183]	<0.5	12	27.9	63	–

The remaining compounds from weak to strong by DC50 (IRAK4 [2]), led by results:

LVL THP1 HTRF YMIN (IRAK4 [2]) [%]	DC50 (IRAK4 [2]) [nM]	ALE THP1 HTRF YMIN (IRAK4 [3]) [%]	EC50 (IRAK4 [3]) [nM]	SMILES	other results
6.3	415	9.4	5	C[C@H](C#N)Nc1cc(-n2ncc3cc(C#N)cnc32)ncc1C(=O)N[C@H]1CC[C@H](CCN2CCN(c3ccc(C4CCC(=O)NC4=O)cc3)C3(CCC3)C2)CC1 (stereo partly drawn) [P-182]	–
5.7	29	13.9	34	C[C@H](C#N)Nc1cc(-n2ncc3cc(C#N)c(N)nc32)ncc1C(=O)N[C@H]1CC[C@H](CCN2CCN(c3ccc(C4CCC(=O)NC4=O)cc3)C(C(F)(F)F)C2)CC1 (stereo partly drawn) [P-186]	–
<0.5	26	8.4	12	C[C@H](C#N)Nc1cc(-n2ccc3cnc(N)nc32)ncc1C(=O)N[C@H]1CC[C@H](CCN2CCN(c3ccc(C4CCC(=O)NC4=O)cc3)CC2)CC1 (stereo partly drawn) [P-163]	–
<0.5	21	8.1	8	C[C@H](C#N)Nc1cc(-n2ncc3cc(C#N)c(N)nc32)ncc1C(=O)N[C@H]1CC[C@H](CCN2CCN(c3ccc(C4CCC(=O)NC4=O)cn3)[C@H](C)C2)CC1 (stereo partly drawn) [P-166]	–
<0.5	18	6.1	7	C[C@H](C#N)Nc1cc(-n2ncc3cnc(N)nc32)ncc1C(=O)N[C@H]1CC[C@H](CCN2CCN(c3ccc(C4CCC(=O)NC4=O)cc3)CC2)CC1 (stereo partly drawn) [P-159]	–
1.7	11	5.6	1	C[C@H](C#N)Nc1cc(-n2ncc3cc(C#N)cnc32)ncc1-n1cc([C@H]2CC[C@H](CCN3CCN(c4ccc(C5CCC(=O)NC5=O)cc4)CC3)CC2)nn1 (stereo partly drawn) [P-139, 1-(4-(((R)-1-cyanoethyl)amino)-5-(4-((1r,4R)-4-(2-(4-(4-(2,6-dioxopiperidin-3-yl)phenyl)piperazin-1-yl)ethyl)cyclohexyl)-1H-1,2,3-triazol-1-yl)pyridin-2-yl)-1H-pyrazolo[3,4-b]pyridine-5-carbonitrile, formic acid salt]	FPO [1]: 39%; AUC(0-t) [1, 4]: 1.06 µM·h; MRT [1, 4]: 4.59 h; half-life [1, 4]: 179 min; clearance [1, 4]: 10.6 mL/min/kg; Vd [1, 4]: 2.91 L/kg; AUC(0-t) ([1]; mouse, PO 3.0 mg/kg, plasma): 2.47 µM·h; Cmax ([1]; mouse, PO 3.0 mg/kg, plasma): 380 nM; Tmax ([1]; mouse, PO 3.0 mg/kg, plasma): 2 h
0.6	8	6.4	3	N#Cc1cc2cnn(-c3cc(NC4CC4)c(-n4cc([C@H]5CC[C@H](CCN6CCN(c7ccc(C8CCC(=O)NC8=O)cc7)CC6)CC5)nn4)cn3)c2nc1N (stereo partly drawn) [P-162]	–
0.9	6	10.2	2	C[C@H](C#N)Nc1cc(-n2ncc3cc(C#N)cnc32)ncc1-n1cc(C2CCC(CCN3CCN(c4ccc(C5CCC(=O)NC5=O)cc4)[C@H](C)C3)CC2)nn1 (stereo partly drawn) [P-155]	FPO [1]: ~100%; AUC(0-t) [1, 4]: 2.01 µM·h; MRT [1, 4]: 3.3 h; half-life [1, 4]: 246 min; clearance [1, 4]: 5.45 mL/min/kg; Vd [1, 4]: 1.08 L/kg; AUC(0-t) ([1]; mouse, PO 3.0 mg/kg, plasma): 13.7 µM·h; Cmax ([1]; mouse, PO 3.0 mg/kg, plasma): 3010 nM; Tmax ([1]; mouse, PO 3.0 mg/kg, plasma): 2 h
<0.5	6	5.4	2	C[C@H](C#N)Nc1cc(-n2ncc3cc(C#N)c(N)nc32)ncc1C(=O)N[C@H]1CC[C@H](CCN2CCN(c3ccc(C4CCC(=O)NC4=O)cc3F)[C@H](C)C2)CC1 (stereo partly drawn) [P-165]	–
1.4	6	–	–	CC[C@@H]1CN(CC[C@H]2CC[C@H](c3cn(-c4cnc(-n5ncc6cc(C#N)cnc65)cc4N[C@H](C)C#N)nn3)CC2)CCN1c1ccc(N2CCC(=O)NC2=O)cn1 [P-394, 1-(4-(((R)-1-cyanoethyl)amino)-5-(4-((1R,4R)-4-(2-((R)-4-(5-(2,4-dioxotetrahydropyrimidin-1(2H)-yl)pyridin-2-yl)-3-ethylpiperazin-1-yl)ethyl)cyclohexyl)-1H-1,2,3-triazol-1-yl)pyridin-2-yl)-1H-pyrazolo[3,4-b]pyridine-5-carbonitrile]	AUC(0-t) [1, 5]: 0.884 µM·h; MRT [1, 5]: 2.2 h; half-life [1, 5]: 102 min; clearance [1, 5]: 11.8 mL/min/kg; Vd [1, 5]: 1.58 L/kg; bioavailability ([1]; mouse, plasma, PO 3.00 mg/kg vs IV 0.50 mg/kg, dose-normalized AUCLAST ratio, read-out: FPO (oral bioavailability)): 26.6%; AUC(0-t) ([1]; mouse, plasma, PO 3.00 mg/kg): 1.41 µM·h; Cmax ([1]; mouse, plasma, PO 3.00 mg/kg): 559 nM; Tmax ([1]; mouse, plasma, PO 3.00 mg/kg): 0.25 h
<0.5	3	5.5	6	C[C@H](C#N)Nc1cc(-n2ncc3cc(C#N)c(N)nc32)ncc1C(=O)N[C@H]1CC[C@H](CCN2CCN(c3ccc(C4CCC(=O)NC4=O)cc3Cl)[C@H](C)C2)CC1 (stereo partly drawn) [P-168]	–
0.8	1	7.5	12	C[C@H](C#N)Nc1cc(-n2ncc3cc(C#N)c(N)nc32)ncc1C(=O)N[C@H]1CC[C@H](CCN2CCN(c3ccc(C4CCC(=O)NC4=O)cc3)[C@@H](C)C2)CC1 (stereo partly drawn) [P-178]	–
